# In US20210361688A1 (priority 2020, published 2021):
# Legend:
# [1] = Estimated ivermectin concentration delivered into the respiratory pathways per nebulization; set-up: species or system human; settings: about 10% of nebulized solution reaches the respiratory pathways; approx. 3 mg into 150 cc dead space
# Procedure: 3 mL of the solution was administered to the subject directly into the lungs in the form of an inhalable mist.
# [2] = tested on: SARS-CoV-2 isolate Australia/VIC01/2020; settings: cited from earlier work
# [3] = cited from earlier work
# [4] = tested on: pseudorabies virus (PRV); settings: mouse, in vivo; cited from earlier work
# [5] = ivermectin 5 μM from 2 hours post-infection, 24 h, Vero-hSLAM cells
substance,measurement,setting,value
ivermectin,ivermectin delivered per cc of dead space per nebulization,[1],approximately 0.02 mg per cc
same,IC50 concentration necessary to inhibit viral replication,[2]; as quoted in Example 2,0.00175 mg/cc
same,"reduction in viral RNA versus DMSO control, cell associated viral RNA (total virus)",[2]; [5],99.8%
same,"reduction in viral RNA versus DMSO control, supernatant (released virions)",[2]; [5],93%
same,fold reduction of viral RNA,"[2]; ivermectin 5 μM, by hour 48, effect maintained at 72 hours",5000 fold
same,IC50,"[2]; serial dilutions of ivermectin, Vero-hSLAM cells, read-out: IC50 against SARS-CoV-2",~2000 nM
same,tolerability of high doses,[3]; adults or children,well tolerated
same,maximum plasma concentration,"[3]; humans, highest reported dose of approximately 1700 μg/kg",0.28 µM
same,survival in PRV-infected mice,[4],increase survival
